Assays:
Conditions in all cases: 72 h
U2OS [1] = experiment: drug sensitivity score (DSS) for viability; higher = more toxic; extreme values may be limits of the assay
HepG2 [2] = experiment: as above
Calu-3 [3] = experiment: as above
Caco-2 [4] = experiment: as above
Vero E6 [5] = experiment: as above
U2OS [6] = experiment: relative viability EC50 (midpoint between 100% and the lowest measured viability); higher = less toxic
HepG2 [7] = experiment: as above
Vero E6 [8] = experiment: as above
U2OS [9] = experiment: cell viability relative to DMSO; higher = less toxic
HepG2 [10] = experiment: as above
Calu-3 [11] = experiment: as above
Caco-2 [12] = experiment: as above
Vero E6 [13] = experiment: as above
Caco-2 [14] = experiment: relative viability EC50 (midpoint between 100% and the lowest measured viability); higher = less toxic

| SMILES | drug sensitivity score (U2OS [1]) | drug sensitivity score (HepG2 [2]) | drug sensitivity score (Calu-3 [3]) | drug sensitivity score (Caco-2 [4]) | drug sensitivity score (Vero E6 [5]) | relative viability EC50 (U2OS [6]) [µM] | relative viability EC50 (HepG2 [7]) [µM] | relative viability EC50 (Vero E6 [8]) [µM] | cell viability (U2OS [9]; 1 nM) [%] | cell viability (U2OS [9]; 10 nM) [%] | cell viability (U2OS [9]; 100 nM) [%] | cell viability (U2OS [9]; 1000 nM) [%] | cell viability (U2OS [9]; 10000 nM) [%] | cell viability (HepG2 [10]; 1 nM) [%] | cell viability (HepG2 [10]; 10 nM) [%] | cell viability (HepG2 [10]; 100 nM) [%] | cell viability (HepG2 [10]; 1000 nM) [%] | cell viability (HepG2 [10]; 10000 nM) [%] | cell viability (Calu-3 [11]; 1 nM) [%] | cell viability (Calu-3 [11]; 10 nM) [%] | cell viability (Calu-3 [11]; 100 nM) [%] | cell viability (Calu-3 [11]; 1000 nM) [%] | cell viability (Calu-3 [11]; 10000 nM) [%] | cell viability (Caco-2 [12]; 1 nM) [%] | cell viability (Caco-2 [12]; 10 nM) [%] | cell viability (Caco-2 [12]; 100 nM) [%] | cell viability (Caco-2 [12]; 1000 nM) [%] | cell viability (Caco-2 [12]; 10000 nM) [%] | cell viability (Vero E6 [13]; 1 nM) [%] | cell viability (Vero E6 [13]; 10 nM) [%] | cell viability (Vero E6 [13]; 100 nM) [%] | cell viability (Vero E6 [13]; 1000 nM) [%] | cell viability (Vero E6 [13]; 10000 nM) [%] | relative viability EC50 (Caco-2 [14]) [µM] |
| --- | --- | --- | --- | --- | --- | --- | --- | --- | --- | --- | --- | --- | --- | --- | --- | --- | --- | --- | --- | --- | --- | --- | --- | --- | --- | --- | --- | --- | --- | --- | --- | --- | --- | --- |
| CCN1CCN(Cc2ccc(Nc3ncc(F)c(-c4cc(F)c5nc(C)n(C(C)C)c5c4)n3)nc2)CC1 [abemaciclib] | 7.6 | 12.5 | 8.1 | 4.2 | 6.1 | 2.16 | 0.741 | 1.35 | 107 | 107 | 108 | 87.6 | 0.1 | 101 | 94.8 | 84.1 | 47.1 | 0.9 | 106 | 108 | 89.4 | 63 | 74.7 | 109 | 97.2 | 90.7 | 78.8 | 67.8 | 101 | 100 | 95.3 | 77.9 | 38 |  |
| CCc1cc2c(cc1N1CCC(N3CCOCC3)CC1)C(C)(C)c1[nH]c3cc(C#N)ccc3c1C2=O [alectinib] | 0 | 0.9 |  | 0 | 0 | > 10 | > 10 | > 10 | 102 | 100 | 102 | 95.9 | 102 | 101 | 99.9 | 104 | 100 | 75.9 |  |  |  |  |  | 98.7 | 96.8 | 110 | 103 | 106 | 96 | 94.3 | 96.1 | 93.7 | 89 | > 10 |
| COc1c(O)cc2c(c1O)[C@@H]1O[C@H](CO)[C@@H](O)[C@H](O)[C@H]1OC2=O [bergenin] | 0 | 0 |  | 4.5 | 0 | > 10 | > 10 | > 10 | 96.7 | 97.8 | 95.2 | 97.7 | 97.5 | 108 | 79.5 | 98.8 | 88.8 | 96.1 |  |  |  |  |  | 80.5 | 106 | 80.2 | 83.1 | 80.5 | 106 | 103 | 103 | 90.5 | 101 | > 10 |
| O=C(O)c1cc(=O)c2c(OCC(O)COc3cccc4oc(C(=O)O)cc(=O)c34)cccc2o1 [cromoglicic-acid] | 0 | 0 |  | 0 | 0 | > 10 | > 10 | > 10 | 96.4 | 99.4 | 98.4 | 103 | 96.9 | 101 | 95.3 | 104 | 105 | 101 |  |  |  |  |  | 97 | 100 | 98.6 | 102 | 92.3 | 100 | 101 | 101 | 96.6 | 100 | > 10 |

Source: the supplement of paper PMC13380429
